The molecules below were run against recombinant Mcl-1 (residues 172-327) (Homo sapiens (Human), UniProt Q07820) (assay: Bak peptide fluorescence polarization anisotropy competition assay, Mcl-1). Conditions: Table 2, Ki range; FITC-Bak peptide 10 nM, Mcl-1 14 nM; read-out: Ki for inhibition of Mcl-1.
Format: binding

Chain of recombinant Mcl-1 (residues 172-327) (Q07820 172-327): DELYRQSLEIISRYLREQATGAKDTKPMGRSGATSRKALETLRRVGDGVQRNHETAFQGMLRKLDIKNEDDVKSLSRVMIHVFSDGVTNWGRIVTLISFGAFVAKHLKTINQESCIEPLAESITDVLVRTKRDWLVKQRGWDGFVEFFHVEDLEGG

For `Cc1cc(OCCCc2c(C(=O)NS(=O)(=O)CCNC(=O)C(C)C)[nH]c3cc(Cl)ccc23)cc(C)c1Cl` [Example 253, 6-chloro-3-(3-(4-chloro-3,5-dimethylphenoxy)propyl)-N-((2-isobutyramidoethyl)sulfonyl)-1H-indole-2-carboxamide], which Ki is on record?
The Ki was no more than 100 nM.

For `Cc1cc(OCCCc2c(C(=O)NS(C)(=O)=O)[nH]c3cccc(Cl)c23)ccc1Cl` [Example 50, 4-chloro-3-(3-(4-chloro-3-methylphenoxy)propyl)-N-(methylsulfonyl)-1H-indole-2-carboxamide], which Ki is on record?
Its Ki is no more than 100 nM.

Same assay, conditions: read-out: Ki for inhibition of Mcl-1

With `CS(=O)(=O)NC(=O)c1[nH]c2ccccc2c1CCCOc1cccc(C(F)(F)F)c1` [Example 32, N-(methylsulfonyl)-3-(3-(3-(trifluoromethyl)phenoxy)propyl)-1H-indole-2-carboxamide] as the molecule, how does the Ki read?
Its Ki is 1000 to 9990 nM.

Which Ki does the source give for `CCc1ccc(CC(=O)NCCS(=O)(=O)NC(=O)c2[nH]c3ccccc3c2CCCOc2cc(C)c(Cl)c(C)c2)cc1` [Example 174, 3-(3-(4-chloro-3,5-dimethylphenoxy)propyl)-N-((2-(2-(4-ethylphenyl)acetamido)ethyl)sulfonyl)-1H-indole-2-carboxamide] here?
Its Ki is 101 to 299 nM.

Which Ki does the source give for `Cc1cc(OCCCc2c(C(=O)NS(=O)(=O)c3cccc(Br)c3)[nH]c3cc(Cl)ccc23)cc(C)c1Cl` [Example 218, N-((3-bromophenyl)sulfonyl)-6-chloro-3-(3-(4-chloro-3,5-dimethylphenoxy)propyl)-1H-indole-2-carboxamide] here?
The Ki was 101 to 299 nM.

How did the Ki turn out when `Cc1cc(OCCCc2c(C(=O)NS(C)(=O)=O)[nH]c3cccc(C(F)(F)F)c23)cc(C)c1Cl` [Example 82, 3-(3-(4-chloro-3,5-dimethylphenoxy)propyl)-N-(methylsulfonyl)-4-(trifluoromethyl)-1H-indole-2-carboxamide] was run?
The Ki was 101 to 299 nM.

For `Cc1cc(OCCCc2c(C(=O)NS(=O)(=O)CCNC(=O)c3cnn(Cc4ccccc4)c3)[nH]c3ccccc23)cc(C)c1Cl` [Example 184, N-((2-(1-benzyl-1H-pyrazole-4-carboxamido)ethyl)sulfonyl)-3-(3-(4-chloro-3,5-dimethylphenoxy)propyl)-1H-indole-2-carboxamide], which Ki is on record?
Its Ki is 1000 to 9990 nM.

`O=C(NS(=O)(=O)CCNC(=O)C1CCCCC1)c1[nH]c2cc(Cl)ccc2c1CCCOc1cccc2ccccc12` [Example 228, 6-chloro-N-((2-(cyclohexanecarboxamido)ethyl)sulfonyl)-3-(3-(naphthalen-1-yloxy)propyl)-1H-indole-2-carboxamide] was tested. Which Ki did it give?
Its Ki is 301 to 500 nM.

How did the Ki turn out when `Cc1cc(OCCCc2c(C(=O)NS(C)(=O)=O)[nH]c3cc(Br)ccc23)cc(C)c1Cl` [Example 112, 6-bromo-3-(3-(4-chloro-3,5-dimethylphenoxy)propyl)-N-(methylsulfonyl)-1H-indole-2-carboxamide] was run?
Its Ki is 301 to 500 nM.

Which Ki does the source give for `COc1ccc(Cn2cccc2C(=O)NCCS(=O)(=O)NC(=O)c2[nH]c3cc(Cl)ccc3c2CCCOc2cc(C)c(Cl)c(C)c2)cc1` [Example 249, 6-chloro-3-(3-(4-chloro-3,5-dimethylphenoxy)propyl)-N-((2-(1-(4-methoxybenzyl)-1H-pyrrole-2-carboxamido)ethyl)sulfonyl)-1H-indole-2-carboxamide] here?
The Ki was 101 to 299 nM.

How did the Ki turn out when `O=C(O)c1sc2c(NCc3ccccc3)cccc2c1CCCOc1cccc2ccccc12` [Example 73, 7-(benzylamino)-3-(3-(naphthalen-1-yloxy)propyl)benzo[b]thiophene-2-carboxylic acid] was run?
Its Ki is 1000 to 9990 nM.

Which Ki does the source give for `CS(=O)(=O)NC(=O)c1[nH]c2cc(Br)ccc2c1CCCOc1cccc2ccccc12` [Example 114, 6-bromo-N-(methylsulfonyl)-3-(3-(naphthalen-1-yloxy)propyl)-1H-indole-2-carboxamide] here?
The Ki was 301 to 500 nM.

For `Cc1cc(OCCCc2c(C(=O)NS(C)(=O)=O)[nH]c3c(-c4c(CO)nn(C)c4C)cccc23)cc(C)c1Cl` [Example 126, 3-(3-(4-chloro-3,5-dimethylphenoxy)propyl)-7-(3-(hydroxymethyl)-1,5-dimethyl-1H-pyrazol-4-yl)-N-(methylsulfonyl)-1H-indole-2-carboxamide], which Ki is on record?
The Ki was 101 to 299 nM.

For `Cc1cc(OCCCc2c(C(=O)NS(=O)(=O)c3ccc(Oc4ccccc4)cc3)[nH]c3cc(Cl)ccc23)cc(C)c1Cl` [Example 222, 6-chloro-3-(3-(4-chloro-3,5-dimethylphenoxy)propyl)-N-((4-phenoxyphenyl)sulfonyl)-1H-indole-2-carboxamide], which Ki is on record?
The Ki was 101 to 299 nM.

Which Ki does the source give for `Cc1cc(OCCCc2c(C(=O)NS(=O)(=O)CCNC(=O)c3cccn3Cc3cccc(Cl)c3)[nH]c3cc(Cl)ccc23)cc(C)c1Cl` [Example 243, 6-chloro-3-(3-(4-chloro-3,5-dimethylphenoxy)propyl)-N-((2-(1-(3-chlorobenzyl)-1H-pyrrole-2-carboxamido)ethyl)sulfonyl)-1H-indole-2-carboxamide] here?
Its Ki is 301 to 500 nM.

How did the Ki turn out when `Cc1cc(OCCCc2c(C(=O)NS(C)(=O)=O)[nH]c3cc(C(F)(F)F)ccc23)ccc1Cl` [Example 77, 3-(3-(4-chloro-3-methylphenoxy)propyl)-N-(methylsulfonyl)-6-(trifluoromethyl)-1H-indole-2-carboxamide] was run?
The Ki was 301 to 500 nM.

For `CCOc1ccc(Oc2ccc(S(=O)(=O)NC(=O)c3[nH]c4cc(Cl)ccc4c3CCCOc3cc(C)c(Cl)c(C)c3)cc2)cc1` [Example 223, 6-chloro-3-(3-(4-chloro-3,5-dimethylphenoxy)propyl)-N-((4-(4-ethoxyphenoxy)phenyl)sulfonyl)-1H-indole-2-carboxamide], which Ki is on record?
Its Ki is 301 to 500 nM.

`O=C(CCc1ccccc1)NCCS(=O)(=O)NC(=O)c1[nH]c2cc(Cl)ccc2c1CCCOc1cccc2ccccc12` [Example 240, 6-chloro-3-(3-(naphthalen-1-yloxy)propyl)-N-((2-(3-phenylpropanamido)ethyl)sulfonyl)-1H-indole-2-carboxamide] was tested. Which Ki did it give?
Its Ki is 301 to 500 nM.

With `Cc1cc(OCCCc2c(C(=O)NS(=O)(=O)CCNC(=O)c3cccn3Cc3ccccc3)n(Cc3ccccc3)c3cc(Cl)ccc23)cc(C)c1Cl` [Example 278, 1-benzyl-N-((2-(1-benzyl-1H-pyrrole-2-carboxamido)ethyl)sulfonyl)-6-chloro-3-(3-(4-chloro-3,5-dimethylphenoxy)propyl)-1H-indole-2-carboxamide] as the molecule, how does the Ki read?
The Ki was 101 to 299 nM.

Which Ki does the source give for `Cc1cc(OCCCc2c(C(=O)NS(=O)(=O)CCNC(=O)Cc3ccc(Br)cc3)[nH]c3ccccc23)cc(C)c1Cl` [Example 169, N-((2-(2-(4-bromophenyl)acetamido)ethyl)sulfonyl)-3-(3-(4-chloro-3,5-dimethylphenoxy)propyl)-1H-indole-2-carboxamide] here?
The Ki was 301 to 500 nM.

With `Cc1cc(OCCCc2c(C(=O)NS(=O)(=O)CCNS(=O)(=O)C3CCCCC3)[nH]c3ccccc23)cc(C)c1Cl` [Example 149, 3-(3-(4-chloro-3,5-dimethylphenoxy)propyl)-N-((2-(cyclohexanesulfonamido)ethyl)sulfonyl)-1H-indole-2-carboxamide] as the molecule, how does the Ki read?
The Ki was 101 to 299 nM.

With `Cc1cc(OCCCc2c(C(=O)NS(=O)(=O)CCN3C(=O)c4ccccc4C3=O)[nH]c3cc(Cl)ccc23)cc(C)c1Cl` [Example 250, 6-chloro-3-(3-(4-chloro-3,5-dimethylphenoxy)propyl)-N-((2-(1,3-dioxoisoindolin-2-yl)ethyl)sulfonyl)-1H-indole-2-carboxamide] as the molecule, how does the Ki read?
The Ki was 101 to 299 nM.

For `Cc1cc(OCCCc2c(C(=O)NS(=O)(=O)CCNC(=O)c3ccc(Oc4ccccc4)cc3)[nH]c3ccccc23)cc(C)c1Cl` [Example 166, 3-(3-(4-chloro-3,5-dimethylphenoxy)propyl)-N-((2-(4-phenoxybenzamido)ethyl)sulfonyl)-1H-indole-2-carboxamide], which Ki is on record?
Its Ki is 301 to 500 nM.

Source: patent US10844032B2, “Substituted benzofuran, benzothiophene and indole Mcl-1 inhibitors” (Vanderbilt University, priority 2012, dated 2020)
